ChEMBL document CHEMBL1158609, “Potent antimicrobial activity of 3-(4,5-diaryl-1H-imidazol-2-yl)-1H-indole derivatives against methicillin-resistant Staphylococcus aureus” (2010)
≈ marks a conversion by molar mass, not a printed value.

Columns and labels:
Staphylococcus aureus [1] = assay: Antimicrobial activity against methicillin-susceptible Staphylococcus aureus; assay type: functional
Staphylococcus aureus [2] = assay: Antimicrobial activity against methicillin-resistant Staphylococcus aureus; assay type: functional
Bacillus subtilis [3] = assay: Antimicrobial activity against Bacillus subtilis ATCC 14579; assay type: functional
Streptococcus pneumoniae = assay: Antimicrobial activity against Streptococcus pneumoniae ATCC 49150; assay type: functional
Escherichia coli [4] = assay: Antimicrobial activity against Escherichia coli ATCC 35333; assay type: functional
[5] = test system: Staphylococcus epidermidis; assay: Antimicrobial activity against Staphylococcus epidermidis ATCC 12228; assay type: functional
Streptococcus pyogenes [6] = assay: Antimicrobial activity against Streptococcus pyogenes ATCC 12386; assay type: functional
Escherichia coli [7] = assay: Antimicrobial activity against Escherichia coli ATCC 12435; assay type: functional
Streptococcus pyogenes [8] = assay: Antimicrobial activity against Streptococcus pyogenes ATCC 19615; assay type: functional
Streptococcus agalactiae = assay: Antimicrobial activity against Streptococcus agalactiae ATCC 13813; assay type: functional
Pseudomonas aeruginosa [9] = assay: Antimicrobial activity against Pseudomonas aeruginosa ATCC 19142; assay type: functional
Micrococcus luteus = assay: Antimicrobial activity against Micrococcus luteus ATCC 10240; assay type: functional
Bacillus subtilis [10] = assay: Antimicrobial activity against Bacillus subtilis ATCC 6633; assay type: functional
[11] = test system: Streptococcus dysgalactiae; assay: Antimicrobial activity against Streptococcus dysgalactiae ATCC 12394; assay type: functional
[12] = test system: Streptococcus dysgalactiae; assay: Antimicrobial activity against Streptococcus dysgalactiae ATCC 12388; assay type: functional
Salmonella enterica [13] = assay: Antimicrobial activity against Salmonella Typhimurium ATCC 13311; assay type: functional, Salmonella enterica subsp. enterica serovar Typhimurium
[14] = test system: Staphylococcus epidermidis; assay: Antimicrobial activity against Staphylococcus epidermidis ATCC 35983; assay type: functional
Enterococcus faecalis [15] = assay: Antimicrobial activity against Enterococcus faecalis ATCC 51559; assay type: functional
[16] = test system: Staphylococcus saprophyticus; assay: Antimicrobial activity against Staphylococcus saprophyticus ATCC 15305; assay type: functional
Pseudomonas aeruginosa [17] = assay: Antimicrobial activity against Pseudomonas aeruginosa ATCC 39324; assay type: functional
[18] = test system: Staphylococcus epidermidis; assay: Antimicrobial activity against Staphylococcus epidermidis ATCC 13518; assay type: functional
Streptococcus sanguinis = assay: Antimicrobial activity against Streptococcus sanguinis ATCC 10556; assay type: functional
Salmonella enterica [19] = assay: Antimicrobial activity against Salmonella Typhimurium ATCC 14028; assay type: functional, Salmonella enterica subsp. enterica serovar Typhimurium
Enterococcus faecalis [20] = assay: Antimicrobial activity against Enterococcus faecalis ATCC 29212; assay type: functional
Enterococcus faecalis [21] = assay: Antimicrobial activity against Enterococcus faecalis ATCC 51299; assay type: functional

Clc1ccc(-c2nc(-c3c[nH]c4ccc(Br)cc34)[nH]c2-c2ccccc2)cc1
MIC (Staphylococcus aureus [1]): 1 µg/mL (≈ 2.23 µM) | MIC (Staphylococcus aureus [2]): 1 µg/mL (≈ 2.23 µM)

Brc1ccc(-c2nc(-c3c[nH]c4ccc(Br)cc34)[nH]c2-c2ccccc2)cc1
MIC (Staphylococcus aureus [1]): 2 µg/mL (≈ 4.06 µM) | MIC (Staphylococcus aureus [2]): 2 µg/mL (≈ 4.06 µM)

O=[N+]([O-])c1ccc(-c2nc(-c3c[nH]c4ccc(Br)cc34)[nH]c2-c2ccccc2)cc1
MIC (Staphylococcus aureus [1]): > 64 µg/mL

Fc1ccc(-c2nc(-c3c[nH]c4ccc(Br)cc34)[nH]c2-c2ccc(F)cc2)cc1
MIC (Bacillus subtilis [3]): 2 µg/mL (≈ 4.44 µM) | MIC (Streptococcus pneumoniae): 2 µg/mL (≈ 4.44 µM) | MIC (Escherichia coli [4]): > 64 µg/mL | MIC [5]: 2 µg/mL (≈ 4.44 µM) | MIC (Streptococcus pyogenes [6]): 2 µg/mL (≈ 4.44 µM) | MIC (Escherichia coli [7]): > 64 µg/mL | MIC (Staphylococcus aureus [1]): 1 µg/mL (≈ 2.22 µM) | MIC (Streptococcus pyogenes [8]): 2 µg/mL (≈ 4.44 µM) | MIC (Streptococcus agalactiae): 2 µg/mL (≈ 4.44 µM) | MIC (Pseudomonas aeruginosa [9]): > 64 µg/mL | MIC (Micrococcus luteus): 1 µg/mL (≈ 2.22 µM) | MIC (Bacillus subtilis [10]): 2 µg/mL (≈ 4.44 µM) | MIC [11]: 2 µg/mL (≈ 4.44 µM) | MIC [12]: 2 µg/mL (≈ 4.44 µM) | MIC (Salmonella enterica [13]): > 64 µg/mL | MIC (Staphylococcus aureus [2]): 1 µg/mL (≈ 2.22 µM) | MIC [14]: 2 µg/mL (≈ 4.44 µM) | MIC (Enterococcus faecalis [15]): 2 µg/mL (≈ 4.44 µM) | MIC [16]: 2 µg/mL (≈ 4.44 µM) | MIC (Pseudomonas aeruginosa [17]): > 64 µg/mL | MIC [18]: 2 µg/mL (≈ 4.44 µM) | MIC (Streptococcus sanguinis): 1 µg/mL (≈ 2.22 µM) | MIC (Salmonella enterica [19]): > 64 µg/mL | MIC (Enterococcus faecalis [20]): 2 µg/mL (≈ 4.44 µM) | MIC (Enterococcus faecalis [21]): 2 µg/mL (≈ 4.44 µM)

Cc1[nH]c2ccccc2c1-c1nc(-c2ccc(Cl)cc2)c(-c2ccccc2)[nH]1
MIC (Staphylococcus aureus [1]): 8 µg/mL (≈ 20.8 µM) | MIC (Staphylococcus aureus [2]): 8 µg/mL (≈ 20.8 µM)

Clc1ccc(-c2nc(-c3c[nH]c4ccc(Br)cc34)[nH]c2-c2ccc(Cl)cc2)cc1
MIC (Staphylococcus aureus [1]): 2 µg/mL (≈ 4.14 µM) | MIC (Staphylococcus aureus [2]): 2 µg/mL (≈ 4.14 µM)

Cc1[nH]c2ccccc2c1-c1nc(-c2ccc(-c3ccccc3)cc2)c(-c2ccccc2)[nH]1
MIC (Staphylococcus aureus [1]): 4 µg/mL (≈ 9.4 µM) | MIC (Staphylococcus aureus [2]): 2 µg/mL (≈ 4.7 µM)

Cc1[nH]c2ccccc2c1-c1nc(-c2ccc([N+](=O)[O-])cc2)c(-c2ccccc2)[nH]1
MIC (Staphylococcus aureus [1]): 8 µg/mL (≈ 20.3 µM) | MIC (Staphylococcus aureus [2]): 8 µg/mL (≈ 20.3 µM)

Brc1ccc2[nH]cc(-c3nc(-c4ccc(-c5ccccc5)cc4)c(-c4ccccc4)[nH]3)c2c1
MIC (Staphylococcus aureus [1]): 4 µg/mL (≈ 8.16 µM) | MIC (Staphylococcus aureus [2]): 4 µg/mL (≈ 8.16 µM)

O=[N+]([O-])c1ccc(-c2nc(-c3c[nH]c4ccc(Br)cc34)[nH]c2-c2ccc([N+](=O)[O-])cc2)cc1
MIC (Staphylococcus aureus [1]): > 64 µg/mL

Cc1[nH]c2ccccc2c1-c1nc(-c2ccc(-c3ccccc3)cc2)c(-c2ccc(-c3ccccc3)cc2)[nH]1
MIC (Staphylococcus aureus [1]): > 64 µg/mL

Cc1[nH]c2ccccc2c1-c1nc(-c2ccc(Oc3ccccc3)cc2)c(-c2ccc(Oc3ccccc3)cc2)[nH]1
MIC (Staphylococcus aureus [1]): > 64 µg/mL

CN[C@H](CC(C)C)C(=O)N[C@H]1C(=O)N[C@@H](CC(N)=O)C(=O)N[C@H]2C(=O)N[C@H]3C(=O)N[C@H](C(=O)N[C@H](C(=O)O)c4cc(O)cc(O)c4-c4cc3ccc4O)[C@H](O)c3ccc(c(Cl)c3)Oc3cc2cc(c3O[C@@H]2O[C@H](CO)[C@@H](O)[C@H](O)[C@H]2O[C@H]2C[C@](C)(N)[C@H](O)[C@H](C)O2)Oc2ccc(cc2Cl)[C@H]1O [VANCOMYCIN]
MIC (Bacillus subtilis [3]): 1 µg/mL (≈ 0.69 µM) | MIC (Streptococcus pneumoniae): 4 µg/mL (≈ 2.76 µM) | MIC (Escherichia coli [4]): > 64 µg/mL | MIC (Streptococcus pyogenes [6]): 2 µg/mL (≈ 1.38 µM) | MIC (Escherichia coli [7]): > 64 µg/mL | MIC (Streptococcus pyogenes [8]): 1 µg/mL (≈ 0.69 µM) | MIC (Streptococcus agalactiae): 1 µg/mL (≈ 0.69 µM) | MIC (Pseudomonas aeruginosa [9]): > 64 µg/mL | MIC (Micrococcus luteus): 0.25 µg/mL (≈ 0.173 µM) | MIC (Bacillus subtilis [10]): 0.25 µg/mL (≈ 0.173 µM) | MIC [11]: 1 µg/mL (≈ 0.69 µM) | MIC [12]: 0.5 µg/mL (≈ 0.345 µM) | MIC (Salmonella enterica [13]): > 64 µg/mL | MIC (Enterococcus faecalis [15]): > 64 µg/mL | MIC [16]: 2 µg/mL (≈ 1.38 µM) | MIC (Pseudomonas aeruginosa [17]): > 64 µg/mL | MIC [18]: 0.5 µg/mL (≈ 0.345 µM) | MIC (Streptococcus sanguinis): 1 µg/mL (≈ 0.69 µM) | MIC (Salmonella enterica [19]): > 64 µg/mL | MIC (Enterococcus faecalis [21]): 16 µg/mL (≈ 11 µM)

Cc1[nH]c2ccccc2c1-c1nc(-c2ccc(Br)cc2)c(-c2ccc(Br)cc2)[nH]1
MIC (Staphylococcus aureus [1]): 2 µg/mL (≈ 3.94 µM) | MIC (Staphylococcus aureus [2]): 2 µg/mL (≈ 3.94 µM)

Cc1[nH]c2ccccc2c1-c1nc(-c2ccccc2)c(-c2ccccc2)[nH]1
MIC (Staphylococcus aureus [1]): 8 µg/mL (≈ 22.9 µM) | MIC (Staphylococcus aureus [2]): 4 µg/mL (≈ 11.4 µM)

Cc1ccc(-c2nc(-c3c[nH]c4ccc(Br)cc34)[nH]c2-c2ccccc2)cc1
MIC (Staphylococcus aureus [1]): 2 µg/mL (≈ 4.67 µM) | MIC (Staphylococcus aureus [2]): 2 µg/mL (≈ 4.67 µM)

Cc1ccc(-c2nc(-c3c(C)[nH]c4ccccc34)[nH]c2-c2ccccc2)cc1
MIC (Staphylococcus aureus [1]): 4 µg/mL (≈ 11 µM) | MIC (Staphylococcus aureus [2]): 4 µg/mL (≈ 11 µM)

CC(=O)NC[C@H]1CN(c2ccc(N3CCOCC3)c(F)c2)C(=O)O1 [LINEZOLID]
MIC (Staphylococcus aureus [1]): 1 µg/mL (≈ 2.96 µM)

Cc1[nH]c2ccccc2c1-c1nc(-c2ccc(F)cc2)c(-c2ccc(F)cc2)[nH]1
MIC (Staphylococcus aureus [1]): 4 µg/mL (≈ 10.4 µM) | MIC (Staphylococcus aureus [2]): 4 µg/mL (≈ 10.4 µM)

Cc1[nH]c2ccccc2c1-c1nc(-c2ccc(N(C)C)cc2)c(-c2ccc(N(C)C)cc2)[nH]1
MIC (Staphylococcus aureus [1]): 2 µg/mL (≈ 4.59 µM) | MIC (Staphylococcus aureus [2]): 2 µg/mL (≈ 4.59 µM)

Brc1ccc2[nH]cc(-c3nc(-c4ccc(-c5ccccc5)cc4)c(-c4ccc(-c5ccccc5)cc4)[nH]3)c2c1
MIC (Staphylococcus aureus [1]): > 64 µg/mL

Cc1[nH]c2ccccc2c1-c1nc(-c2ccc(F)cc2)c(-c2ccccc2)[nH]1
MIC (Staphylococcus aureus [1]): 4 µg/mL (≈ 10.9 µM) | MIC (Staphylococcus aureus [2]): 4 µg/mL (≈ 10.9 µM)

Cc1ccc(-c2nc(-c3c[nH]c4ccc(Br)cc34)[nH]c2-c2ccc(C)cc2)cc1
MIC (Staphylococcus aureus [1]): 2 µg/mL (≈ 4.52 µM) | MIC (Staphylococcus aureus [2]): 4 µg/mL (≈ 9.04 µM)

Brc1ccc2[nH]cc(-c3nc(-c4ccc(Oc5ccccc5)cc4)c(-c4ccc(Oc5ccccc5)cc4)[nH]3)c2c1
MIC (Staphylococcus aureus [1]): > 64 µg/mL

Cc1ccc(-c2nc(-c3c(C)[nH]c4ccccc34)[nH]c2-c2ccc(C)cc2)cc1
MIC (Staphylococcus aureus [1]): 8 µg/mL (≈ 21.2 µM) | MIC (Staphylococcus aureus [2]): 8 µg/mL (≈ 21.2 µM)

Cc1onc(-c2ccccc2)c1C(=O)N[C@@H]1C(=O)N2[C@@H]1SC(C)(C)[C@@H]2C(=O)O [OXACILLIN]
MIC (Staphylococcus aureus [1]): 0.5 µg/mL (≈ 1.25 µM) | MIC (Staphylococcus aureus [2]): > 16 µg/mL

Brc1ccc2[nH]cc(-c3nc(-c4ccccc4)c(-c4ccccc4)[nH]3)c2c1
MIC (Staphylococcus aureus [1]): 4 µg/mL (≈ 9.65 µM) | MIC (Staphylococcus aureus [2]): 4 µg/mL (≈ 9.65 µM)

Fc1ccc(-c2nc(-c3c[nH]c4ccc(Br)cc34)[nH]c2-c2ccccc2)cc1
MIC (Staphylococcus aureus [1]): 2 µg/mL (≈ 4.63 µM) | MIC (Staphylococcus aureus [2]): 2 µg/mL (≈ 4.63 µM)

Cc1[nH]c2ccccc2c1-c1nc(-c2ccc(Br)cc2)c(-c2ccccc2)[nH]1
MIC (Staphylococcus aureus [1]): 4 µg/mL (≈ 9.34 µM) | MIC (Staphylococcus aureus [2]): 4 µg/mL (≈ 9.34 µM)

CN(C)c1ccc(-c2nc(-c3c[nH]c4ccc(Br)cc34)[nH]c2-c2ccc(N(C)C)cc2)cc1
MIC (Staphylococcus aureus [1]): 2 µg/mL (≈ 4 µM) | MIC (Staphylococcus aureus [2]): 2 µg/mL (≈ 4 µM)

Brc1ccc(-c2nc(-c3c[nH]c4ccc(Br)cc34)[nH]c2-c2ccc(Br)cc2)cc1
MIC (Staphylococcus aureus [1]): > 64 µg/mL

Cc1[nH]c2ccccc2c1-c1nc(-c2ccc(Cl)cc2)c(-c2ccc(Cl)cc2)[nH]1
MIC (Staphylococcus aureus [1]): 4 µg/mL (≈ 9.56 µM) | MIC (Staphylococcus aureus [2]): 4 µg/mL (≈ 9.56 µM)

Cc1[nH]c2ccccc2c1-c1nc(-c2ccc([N+](=O)[O-])cc2)c(-c2ccc([N+](=O)[O-])cc2)[nH]1
MIC (Staphylococcus aureus [1]): > 64 µg/mL
